{"source": "patent US20170281541A1", "about": "“LIPOSOME-BASED MUCUS-PENETRATING PARTICLES FOR MUCOSAL DELIVERY” (The Johns Hopkins University, priority 2014, published 2017)", "assay": "CEST imaging in vivo (diaCEST MRI) after intravaginal administration", "design": "species or system mice", "procedure": "Naturally cycling, estrus phase female mice were used for the intravaginal distribution study and the in vivo CEST imaging studies. In brief, female CF-1 mice (6-8 weeks old, Harlan, Indianapolis, Ind.) were housed in a reversed light cycle facility (12-hour light/12-hour dark). Mice were selected for external estrus appearance, which was confirmed upon dissection. All animal studies were performed in accordance to protocols approved by the Institutional Animal Care and Use Committee (IACUC) at the Johns Hopkins University.\nMice were anesthetized using isoflurane and positioned in a 11.7 T horizontal bore Bruker Biospec scanner (Bruker Biosciences, Billerica, Mass.). Twenty microliters of BA-loaded 7 mol %-PEG liposome suspension (4 mg BA/mL) or free BA solution at a equivalent dose were administered intravaginally via a customized catheter. Imaging was performed before and at 30 min-intervals after the intravaginal administration up to 1.5 h. Axial images were acquired at ˜2 mm above the tip of the catheter that was inserted ˜5 mm deep from the vaginal opening. […]\nMR images were processed using custom-written Matlab scripts with the CEST contrast quantified by calculating the asymmetry in the magnetization transfer ratio (MTRasym) using MTRasym=(S−Δω−S+Δω)/S0 for NH protons at the frequency offset of BA from water (Δω)=5 ppm. […]", "data": [{"molecule": "O=C1CC(=O)NC(=O)N1", "note": "[unencapsulated BA, barbituric acid]", "values": [{"measurement": "vaginal retention time / duration of CEST contrast", "setting": "intravaginal, mice, imaging up to 1.5 h", "value": "~30", "unit": "min"}, {"measurement": "vaginal retention by diaCEST MRI", "setting": "liposomal vs unencapsulated BA", "value": "much shorter vaginal retention time"}]}]}
